Series [1] in a line: Compound solubility in water. Format: physicochemical.
Series [2] has as its target T1, acid ceramidase (hACR) (Homo sapiens, UniProt Q13510).
T1 construct: expressed in transfected cells
T1 sequence (Q13510 22-395): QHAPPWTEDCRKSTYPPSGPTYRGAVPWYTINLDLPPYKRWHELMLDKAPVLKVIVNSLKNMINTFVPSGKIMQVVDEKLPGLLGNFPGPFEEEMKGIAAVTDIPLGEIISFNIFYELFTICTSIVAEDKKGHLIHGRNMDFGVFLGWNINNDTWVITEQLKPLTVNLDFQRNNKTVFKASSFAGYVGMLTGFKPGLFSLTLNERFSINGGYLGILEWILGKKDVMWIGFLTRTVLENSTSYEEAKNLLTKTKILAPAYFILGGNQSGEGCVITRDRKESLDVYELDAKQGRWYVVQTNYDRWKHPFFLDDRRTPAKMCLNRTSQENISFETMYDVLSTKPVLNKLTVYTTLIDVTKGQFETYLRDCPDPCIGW
The series can be described thus: Acid ceramidase inhibition, biochemical fluorescent assay with cell lysates overexpressing acid ceramidase (substrate Rbm14-12). The note with it: cell lysate, 1 hr preincubation at RT, pH 4.5, Rbm14-12 6.3 μM; read-out: IC50 hACR. Put shortly: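 Enzyme source was lysate from cells overexpressing acid ceramidase, 10 µg protein per reaction. Compounds were preincubated 1 h at RT in 25 mM NaAc, 100 mM NaCl, pH 4.5.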

The structures appear in SMILES notation. ≈ marks a conversion by molar mass, not a printed value.

In series [1], `COc1nc(C)cn1C(=O)NCCCOC(F)(F)F` [Example 151, 2-Methoxy-4-methyl-N-(3-(trifluoromethoxy)-propyl)-1H-imidazole-1-carboxamide] had a solubility of 30 µg/mL (≈ 107 µM). Further, the half-maximal inhibitory concentration (IC50) in series [2] was 200 to 1000 nM.
`COc1nc(C)cn1C(=O)NC1CCC(F)(F)CC1` [Example 152, N-(4,4-difluorocyclohexyl)-2-methoxy-4-methyl-1H-imidazole-1-carboxamide] had a solubility in series [1] of 30 µg/mL (≈ 110 µM). In addition, the IC50 in series [2] is greater than 1000 nM.
Taken in the same sequence, the figures for `COc1nc(C)cn1C(=O)NC1CCCC(F)(F)C1` (centres unmarked) [Example 153, N-(3,3-difluorocyclohexyl)-2-methoxy-4-methyl-1H-imidazole-1-carboxamide] were 29 µg/mL (≈ 106 µM) and greater than 1000 nM.
For `COc1nc(C)cn1C(=O)NCCC1CCC(F)(F)C1` (centres unmarked) [Example 154, N-(2-(3,3-Difluorocyclopentyl)ethyl)-2-methoxy-4-methyl-1H-imidazole-1-carboxamide], the concentration in solution in series [1] (solubility) was 30 µg/mL (≈ 104 µM). In series [2], the IC50 lay in the range of 200 to 1000 nM.
Taken in the same sequence, the figures for `COc1nc(C)cn1C(=O)NCCCCC1(C(F)(F)F)CC1` [Example 155, 2-Methoxy-4-methyl-N-(4-(1-(trifluoromethyl)-cyclopropyl)butyl)-1H-imidazole-1-carboxamide] were 22 µg/mL (≈ 68.9 µM) and less than 200 nM.
Regarding `COc1nc(C)cn1C(=O)NCCCCc1ccccc1` [Example 156, 2-Methoxy-4-methyl-N-(4-phenylbutyl)-1H-imidazole-1-carboxamide], the solubility in series [1] came out at 23 µg/mL (≈ 80 µM). Further, in series [2], the IC50 is less than 200 nM.
On the same counts, the results for `COc1nc(-c2ccccc2)cn1C(=O)NC1CCC(F)(F)CC1` [Example 157, N-(4,4-Difluorocyclohexyl)-2-methoxy-4-phenyl-1H-imidazole-1-carboxamide] are 1 µg/mL (≈ 2.98 µM) and 200 to 1000 nM.
As for `COc1nc(-c2ccccc2)cn1C(=O)NC1CCCC(F)(F)C1` (centres unmarked) [Example 158, N-(3,3-Difluorocyclohexyl)-2-methoxy-4-phenyl-1H-imidazole-1-carboxamide], the solubility in series [1] is 1 µg/mL (≈ 2.98 µM). The IC50 in series [2] lay within 200 to 1000 nM.
For the compound `Cc1cn(C(=O)NCCc2ccccc2)c(OCCN2CCOCC2)n1` [Example 159, 4-Methyl-2-(2-morpholinoethoxy)-N-phenethyl-1H-imidazole-1-carboxamide], the solubility in series [1] is 35 µg/mL (≈ 97.6 µM). For the same compound, in series [2], the IC50 was less than 200 nM.
In the case of `COc1nc(C)cn1C(=O)NCCC(C)C` [Example 160, N-iso-Pentyl-2-methoxy-4-methyl-1H-imidazole-1-carboxamide], the “Compound Solubility in Water” value in series [1] was determined as 13 µg/mL. Moreover, the IC50 in series [2] was less than 200 nM.
In series [1], `Cc1cn(C(=O)NC2CCC(F)(F)CC2)c(Oc2cccc(C3CN(C)C3)c2)n1` [Example 162, N-(4,4-Difluorocyclohexyl)-4-methyl-2-(3-(1-methylazetidin-3-yl)phenoxy)-1H-imidazole-1-carboxamide] had a solubility of 17 µg/mL (≈ 42 µM). Moreover, in series [2], the IC50 is 200 to 1000 nM.
Taken in the same sequence, the figures for `Cc1cn(C(=O)NC2CCC(F)(F)CC2)c(Oc2ccc(C#N)cc2)n1` [Example 163, 2-(4-Cyanophenoxy)-N-(4,4-difluorocyclohexyl)-4-methyl-1H-imidazole-1-carboxamide] were 13 µg/mL (≈ 36.1 µM) and less than 200 nM.
On the same counts, the results for `Cc1cn(C(=O)NC2CCC(F)(F)CC2)c(Oc2cccc(C#N)c2)n1` [Example 164, 2-(3-Cyanophenoxy)-N-(4,4-difluorocyclohexyl)-4-methyl-1H-imidazole-1-carboxamide] are 8 µg/mL (≈ 22.2 µM) and less than 200 nM.
Taken in the same sequence, the figures for `Cc1cn(C(=O)NC2CCC(F)(F)CC2)c(Oc2ccc(N3CCOCC3)cc2)n1` [Example 165, N-(4,4-Difluorocyclohexyl)-4-methyl-2-(4-morpholinophenoxy)-1H-imidazole-1-carboxamide] were 21 µg/mL (≈ 49.9 µM) and less than 200 nM.
In series [1], `COc1nc(C)cn1C(=O)NCCC1CC(F)(F)C1` [Example 166, N-(2-(3,3-Difluorocyclobutyl)ethyl)-2-methoxy-4-methyl-1H-imidazole-1-carboxamide] registered a solubility of 30 µg/mL (≈ 110 µM). Further, the IC50 in series [2] lay within 200 to 1000 nM.
As to `COc1nc(C)cn1C(=O)NCCC1CCCC1(F)F` (centres unmarked) [Example 167, N-(2-(2,2-Difluorocyclopentyl)ethyl)-2-methoxy-4-methyl-1H-imidazole-1-carboxamide], the solubility in series [1] was 32 µg/mL (≈ 111 µM). Moreover, the IC50 in series [2] was less than 200 nM.
In the case of `COc1nc(Cl)cn1C(=O)NCCCC(F)(F)F` [Example 168, 4-Chloro-2-methoxy-N-(4,4,4-trifluorobutyl)-1H-imidazole-1-carboxamide], the concentration in solution in series [1] (solubility) came to 34 µg/mL (≈ 119 µM). In addition, the concentration for half-maximal inhibition (IC50) in series [2] is less than 200 nM.
On to `COc1nc(C)c(C)n1C(=O)NCCc1ccccc1` [Example 170, 2-Methoxy-4,5-dimethyl-N-phenethyl-1H-imidazole-1-carboxamide], for which the solubility in series [1] was determined as 10 µg/mL (≈ 36.6 µM). In addition, in series [2], the IC50 is less than 200 nM.
Taken in the same sequence, the figures for `Cc1cn(C(=O)NCCCC(F)(F)F)c(Oc2ccccc2)n1` [Example 171, 4-Methyl-2-phenoxy-N-(4,4,4-trifluorobutyl)-1H-imidazole-1-carboxamide] were 24 µg/mL (≈ 73.3 µM) and less than 200 nM.
Taken in the same sequence, the figures for `Cc1cn(C(=O)NC2CCC(F)(F)CC2)c(Oc2ccccc2)n1` [Example 172, N-(4,4-Difluorocyclohexyl)-4-methyl-2-phenoxy-1H-imidazole-1-carboxamide] were 4 µg/mL (≈ 11.9 µM) and less than 200 nM.
On the same counts, the results for `CN1CCC(c2cn(C(=O)NCCCC3(C(F)(F)F)CC3)cn2)CC1` [Example 174, 4-(1-Methylpiperidin-4-yl)-N-(3-(1-(trifluoromethyl)cyclopropyl)propyl)-1H-imidazole-1-carboxamide] are 25 µg/mL (≈ 69.8 µM) and less than 200 nM.
Regarding `O=C(NCCCC1(C(F)(F)F)CC1)n1cnc(-c2cccnc2N2CCCCC2)c1` [Example 175, 4-(2-(Piperidin-1-yl)pyridin-3-yl)-N-(3-(1-(trifluoromethyl)cyclopropyl)propyl)-1H-imidazole-1-carboxamide], the solubility in series [1] worked out at 1 µg/mL (≈ 2.37 µM). Also, the half-maximal inhibitory concentration (IC50) in series [2] is less than 200 nM.
On the same counts, the results for `O=C(NCCCC1(C(F)(F)F)CC1)n1ccnc1Oc1ccccc1` [Example 177, 2-Phenoxy-N-(3-(1-(trifluoromethyl)cyclopropyl)propyl)-1H-imidazole-1-carboxamide] are 8 µg/mL (≈ 22.6 µM) and less than 200 nM.
`O=C(NCCCC(F)(F)F)n1ccnc1Oc1ccccc1` [Example 178, 2-Phenoxy-N-(4,4,4-trifluorobutyl)-1H-imidazole-1-carboxamide] registered a solubility in series [1] of 32 µg/mL (≈ 102 µM). Further, the IC50 in series [2] was less than 200 nM.
The compound `COc1nc(C)cn1C(=O)NCCCn1ccc(C(C)(C)C)n1` [Example 179, N-(3-(3-(tert-Butyl)-1H-pyrazol-1-yl)propyl)-2-methoxy-4-methyl-1H-imidazole-1-carboxamide] gave a solubility in series [1] of 22 µg/mL (≈ 68.9 µM). Moreover, the 50% inhibitory concentration (IC50) in series [2] was less than 200 nM.
Taken in the same sequence, the figures for `COc1nc(C)cn1C(=O)NCC#CC(C)C` [Example 180, 2-Methoxy-4-methyl-N-(4-methylpent-2-yn-1-yl)-1H-imidazole-1-carboxamide] were 17 µg/mL (≈ 72.3 µM) and less than 200 nM.
On the same counts, the results for `COc1nc(C)cn1C(=O)NCC#CCc1ccccc1` [Example 181, 2-Methoxy-4-methyl-N-(4-phenylbut-2-yn-1-yl)-1H-imidazole-1-carboxamide] are 22 µg/mL (≈ 77.6 µM) and less than 200 nM.
Taken in the same sequence, the figures for `COc1nc(C)cn1C(=O)NCC#CCC1(C(F)(F)F)CC1` [Example 182, 2-Methoxy-4-methyl-N-(4-(1-(trifluoromethyl)cyclopropyl)but-2-ynyl)-1H-imidazole-1-carboxamide] were 25 µg/mL (≈ 79.3 µM) and less than 200 nM.
`Cc1cn(C(=O)NC2CC2)c(OC2CCC(F)(F)CC2)n1` [Example 183, N-Cyclopropyl-2-(4,4-difluorocyclohexyloxy)-4-methyl-1H-imidazole-1-carboxamide] yielded a solubility in series [1] of 31 µg/mL (≈ 104 µM). In addition, the half-inhibitory concentration (IC50) in series [2] was 200 to 1000 nM.
Taken in the same sequence, the figures for `COc1nc(Br)cn1C(=O)NCCCC(F)(F)F` [Example 184, 4-Bromo-2-methoxy-N-(4,4,4-trifluorobutyl)-1H-imidazole-1-carboxamide] were 31 µg/mL (≈ 93.9 µM) and less than 200 nM.
Compound `COc1nc(Cl)cn1C(=O)NCCC1CCCC1(F)F` (centres unmarked) [Example 185, 4-Chloro-N-(2-(2,2-difluorocyclopentyl)ethyl)-2-methoxy-1H-imidazole-1-carboxamide] returned a solubility in series [1] of 29 µg/mL (≈ 94.2 µM). Moreover, in series [2], the IC50 is less than 200 nM.
In series [1], `CC(C)Oc1nc(Cl)cn1C(=O)NCCCC(F)(F)F` [Example 187, 4-Chloro-2-isopropoxy-N-(4,4,4-trifluorobutyl)-1H-imidazole-1-carboxamide] displayed a solubility of 29 µg/mL (≈ 92.4 µM). Besides, the 50% inhibitory concentration (IC50) in series [2] was in the range of 200 to 1000 nM.
On the same counts, the results for `CN1CCC(Oc2nc(Cl)cn2C(=O)NCCCC(F)(F)F)CC1` [Example 188, 4-Chloro-2-((1-methylpiperidin-4-yl)oxy)-N-(4,4,4-trifluorobutyl)-1H-imidazole-1-carboxamide] are 36 µg/mL (≈ 97.6 µM) and 200 to 1000 nM.
Taken in the same sequence, the figures for `COc1nc(Cl)cn1C(=O)NC1CC1` [Example 189, 4-Chloro-N-cyclopropyl-2-methoxy-1H-imidazole-1-carboxamide] were 26 µg/mL (≈ 121 µM) and greater than 1000 nM.
